Patent US20080090734A1, “DRUG SCREENING AND TARGET IDENTIFICATION USING SPR IMAGING OF TARGET PROTEIN ARRAYS” (The Trustees of California State University, priority 2006, published 2008)

Experiments:
[1] = target: TrpS protein (tryptophanyl tRNA synthetase) (Escherichia coli, UniProt P00954); assay: Target-inhibitor interaction by SPR; format: binding
Text: (§1) We have examined specific binding interactions between select target proteins and their specific inhibitors. […] [drawing]

MurG protein = MurG protein (Escherichia coli, UniProt P17443); assay: Target-inhibitor interaction by SPR; format: binding
MurG protein, sequence (P17443 whole entry): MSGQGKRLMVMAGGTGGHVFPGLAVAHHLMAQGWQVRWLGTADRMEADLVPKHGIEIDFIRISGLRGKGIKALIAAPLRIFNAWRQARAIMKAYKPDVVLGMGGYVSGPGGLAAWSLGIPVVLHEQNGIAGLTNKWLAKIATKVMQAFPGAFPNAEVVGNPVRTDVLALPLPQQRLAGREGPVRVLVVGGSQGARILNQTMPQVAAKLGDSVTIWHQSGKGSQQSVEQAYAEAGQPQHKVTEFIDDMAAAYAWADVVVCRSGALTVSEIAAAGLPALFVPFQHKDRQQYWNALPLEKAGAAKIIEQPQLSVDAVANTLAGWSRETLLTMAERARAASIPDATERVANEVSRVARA
Text: as §1

[2] = target: Bovine Serum Albumin (BSA) (Bos taurus, UniProt P02769); assay: SPR binding of ferulic acid to pre-immobilized BSA; details: 10, 20, and 50 μM injected; flow rate 1 mL/h
Bovine Serum Albumin (BSA), sequence (P02769 25-607): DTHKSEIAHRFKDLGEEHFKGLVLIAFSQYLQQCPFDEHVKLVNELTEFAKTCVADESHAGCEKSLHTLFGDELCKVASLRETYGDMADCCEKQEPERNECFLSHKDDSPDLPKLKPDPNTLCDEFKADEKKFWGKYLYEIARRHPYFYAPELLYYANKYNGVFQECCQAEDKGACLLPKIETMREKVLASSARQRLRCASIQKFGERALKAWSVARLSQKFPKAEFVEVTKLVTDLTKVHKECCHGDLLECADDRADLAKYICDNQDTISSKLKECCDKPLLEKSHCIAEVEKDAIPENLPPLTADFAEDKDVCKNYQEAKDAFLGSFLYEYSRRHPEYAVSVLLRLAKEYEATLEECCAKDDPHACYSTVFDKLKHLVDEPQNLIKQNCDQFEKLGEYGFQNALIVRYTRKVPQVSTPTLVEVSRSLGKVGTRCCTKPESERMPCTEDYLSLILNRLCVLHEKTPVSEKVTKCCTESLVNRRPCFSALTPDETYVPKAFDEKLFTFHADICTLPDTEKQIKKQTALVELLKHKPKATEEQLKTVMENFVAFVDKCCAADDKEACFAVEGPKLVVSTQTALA
Description: By injecting solutions containing different concentrations of FA and recording the resultant sensorgrams, the binding constant between FA and BSA was measured. […] Three different FA concentrations (10, 20, and 50 μM) were injected. A flow rate of 1 mL/h was used. [drawing 1] [drawing] Representative SPR sensorgrams showing binding of ferulic acid (structure on the left) onto pre-immobilized BSA molecules.

[3] = test system: A. baumannii clinical isolate LAC 01; assay: Antibiotic susceptibility profile; format: cell-based, Acinetobacter baumannii; parameters: key: Resistance; Intermediate; Susceptible
Method in brief: (§2)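 Hospital-infection strains (NYC, LA) tested against breakpoint-defined agents only; outcome scored S, I or R.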

[4] = test system: A. baumannii clinical isolate LAC 09; assay: Antibiotic susceptibility profile; format: cell-based, Acinetobacter baumannii; parameters: key: Resistance; Intermediate; Susceptible
Method in brief: as §2

[5] = test system: A. baumannii clinical isolate LAC 04; assay: Antibiotic susceptibility profile; format: cell-based, Acinetobacter baumannii; parameters: key: Resistance; Intermediate; Susceptible
Method in brief: as §2

[6] = test system: A. baumannii clinical isolate LAC 02; assay: Antibiotic susceptibility profile; format: cell-based, Acinetobacter baumannii; parameters: key: Resistance; Intermediate; Susceptible
Method in brief: as §2

[7] = test system: A. baumannii clinical isolate LAC 15; assay: Antibiotic susceptibility profile; format: cell-based, Acinetobacter baumannii; parameters: key: Resistance; Intermediate; Susceptible
Method in brief: as §2

[8] = test system: A. baumannii clinical isolate NY C; assay: Antibiotic susceptibility profile; format: cell-based, Acinetobacter baumannii; parameters: key: Resistance; Intermediate; Susceptible
Method in brief: as §2

[9] = test system: A. baumannii clinical isolate NY G; assay: Antibiotic susceptibility profile; format: cell-based, Acinetobacter baumannii; parameters: key: Resistance; Intermediate; Susceptible
Method in brief: as §2

[10] = test system: A. baumannii clinical isolate LAC 11; assay: Antibiotic susceptibility profile; format: cell-based, Acinetobacter baumannii; parameters: key: Resistance; Intermediate; Susceptible
Method in brief: as §2

[11] = test system: A. baumannii clinical isolate LAC 17; assay: Antibiotic susceptibility profile; format: cell-based, Acinetobacter baumannii; parameters: key: Resistance; Intermediate; Susceptible
Method in brief: as §2

[12] = test system: A. baumannii clinical isolate NY H; assay: Antibiotic susceptibility profile; format: cell-based, Acinetobacter baumannii; parameters: key: Resistance; Intermediate; Susceptible
Method in brief: as §2

[13] = test system: A. baumannii reference strain 17978; assay: Antibiotic susceptibility profile; format: cell-based, Acinetobacter baumannii; parameters: key: Resistance; Intermediate; Susceptible; details: strain 17978 (ATCC)
Method in brief: (§3)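 Isolates were collected from nosocomial infections in two US cities (Los Angeles County, New York City). Antibiotics lacking A. baumannii-specific breakpoints were excluded from testing. Susceptibility was then scored as R, I or S.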

[14] = test system: A. baumannii clinical isolate LAC 12; assay: Antibiotic susceptibility profile; format: cell-based, Acinetobacter baumannii; parameters: key: Resistance; Intermediate; Susceptible
Method in brief: as §2

[15] = test system: A. baumannii clinical isolate LAC 20; assay: Antibiotic susceptibility profile; format: cell-based, Acinetobacter baumannii; parameters: key: Resistance; Intermediate; Susceptible
Method in brief: as §2

[16] = test system: A. baumannii clinical isolate NY F; assay: Antibiotic susceptibility profile; format: cell-based, Acinetobacter baumannii; parameters: key: Resistance; Intermediate; Susceptible
Method in brief: as §2

[17] = test system: A. baumannii reference strain SDF; assay: Antibiotic susceptibility profile; format: cell-based, Acinetobacter baumannii; parameters: key: Resistance; Intermediate; Susceptible
Method in brief: as §3

[18] = test system: A. baumannii clinical isolate LAC 05; assay: Antibiotic susceptibility profile; format: cell-based, Acinetobacter baumannii; parameters: key: Resistance; Intermediate; Susceptible
Method in brief: as §2

[19] = test system: A. baumannii clinical isolate LAC 06; assay: Antibiotic susceptibility profile; format: cell-based, Acinetobacter baumannii; parameters: key: Resistance; Intermediate; Susceptible
Method in brief: as §2

[20] = test system: A. baumannii clinical isolate NY D; assay: Antibiotic susceptibility profile; format: cell-based, Acinetobacter baumannii; parameters: key: Resistance; Intermediate; Susceptible
Method in brief: as §2

[21] = test system: A. baumannii reference strain 15839; assay: Antibiotic susceptibility profile; format: cell-based, Acinetobacter baumannii; parameters: key: Resistance; Intermediate; Susceptible; details: strain 15839 (ATCC)
Method in brief: as §3

[22] = test system: A. baumannii clinical isolate LAC 14; assay: Antibiotic susceptibility profile; format: cell-based, Acinetobacter baumannii; parameters: key: Resistance; Intermediate; Susceptible
Method in brief: as §2

[23] = test system: A. baumannii reference strain 19606; assay: Antibiotic susceptibility profile; format: cell-based, Acinetobacter baumannii; parameters: key: Resistance; Intermediate; Susceptible; details: strain 19606 (ATCC)
Method in brief: as §3

[24] = test system: A. baumannii clinical isolate LAC 19; assay: Antibiotic susceptibility profile; format: cell-based, Acinetobacter baumannii; parameters: key: Resistance; Intermediate; Susceptible
Method in brief: as §2

[25] = test system: A. baumannii clinical isolate NY E; assay: Antibiotic susceptibility profile; format: cell-based, Acinetobacter baumannii; parameters: key: Resistance; Intermediate; Susceptible
Method in brief: as §2

[26] = test system: A. baumannii clinical isolate LAC 10; assay: Antibiotic susceptibility profile; format: cell-based, Acinetobacter baumannii; parameters: key: Resistance; Intermediate; Susceptible
Method in brief: as §2

[27] = test system: A. baumannii clinical isolate LAC 08; assay: Antibiotic susceptibility profile; format: cell-based, Acinetobacter baumannii; parameters: key: Resistance; Intermediate; Susceptible
Method in brief: as §2

[28] = test system: A. baumannii clinical isolate LAC 18; assay: Antibiotic susceptibility profile; format: cell-based, Acinetobacter baumannii; parameters: key: Resistance; Intermediate; Susceptible
Method in brief: as §2

[29] = test system: A. baumannii clinical isolate LAC 13; assay: Antibiotic susceptibility profile; format: cell-based, Acinetobacter baumannii; parameters: key: Resistance; Intermediate; Susceptible
Method in brief: as §2

[30] = test system: A. baumannii clinical isolate LAC 03; assay: Antibiotic susceptibility profile; format: cell-based, Acinetobacter baumannii; parameters: key: Resistance; Intermediate; Susceptible
Method in brief: as §2

[31] = test system: A. baumannii clinical isolate NY B; assay: Antibiotic susceptibility profile; format: cell-based, Acinetobacter baumannii; parameters: key: Resistance; Intermediate; Susceptible
Method in brief: as §2

[32] = test system: A. baumannii reference strain AYE; assay: Antibiotic susceptibility profile; format: cell-based, Acinetobacter baumannii; parameters: key: Resistance; Intermediate; Susceptible
Method in brief: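 Clinical isolates from nosocomial infections in New York City and Los Angeles, tested alongside reference strains against only antibiotics having A. baumannii breakpoints; each scored R (resistant), I (intermediate) or S (susceptible).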

[33] = test system: A. baumannii clinical isolate NY A; assay: Antibiotic susceptibility profile; format: cell-based, Acinetobacter baumannii; parameters: key: Resistance; Intermediate; Susceptible
Method in brief: as §2

[34] = test system: A. baumannii clinical isolate LAC 16; assay: Antibiotic susceptibility profile; format: cell-based, Acinetobacter baumannii; parameters: key: Resistance; Intermediate; Susceptible
Method in brief: as §2

[35] = test system: A. baumannii clinical isolate LAC 07; assay: Antibiotic susceptibility profile; format: cell-based, Acinetobacter baumannii; parameters: key: Resistance; Intermediate; Susceptible
Method in brief: as §2

CN=C1NC(=O)[C@H]([C@H](C)c2c[nH]c3ccccc23)O1 [indolmycin]
Specific interaction: interaction with TrpS protein by SPR [1]

ramoplanin
Dose-dependent specific binding: binding to MurG protein by SPR (MurG protein)

COc1cc(/C=C/C(=O)O)ccc1O [ferulic acid]
binding: binding onto pre-immobilized BSA (SPR sensorgrams) [2]

NC[C@H]1O[C@H](O[C@H]2[C@H](O)[C@@H](O[C@H]3O[C@H](CO)[C@@H](O)[C@H](N)[C@H]3O)[C@H](N)C[C@@H]2N)[C@H](N)C[C@@H]1O [TOB, Tobramycin]
S: Antibiotic susceptibility [7] | Antibiotic susceptibility [10] | Antibiotic susceptibility [13] | Antibiotic susceptibility [14] | Antibiotic susceptibility [17] | Antibiotic susceptibility [19] | Antibiotic susceptibility [22] | Antibiotic susceptibility [23] | Antibiotic susceptibility [29]
R: Antibiotic susceptibility [3] | Antibiotic susceptibility [4] | Antibiotic susceptibility [5] | Antibiotic susceptibility [6] | Antibiotic susceptibility [8] | Antibiotic susceptibility [11] | Antibiotic susceptibility [12] | Antibiotic susceptibility [15] | Antibiotic susceptibility [16] | Antibiotic susceptibility [18] | Antibiotic susceptibility [20] | Antibiotic susceptibility [21] | Antibiotic susceptibility [24] | Antibiotic susceptibility [25] | Antibiotic susceptibility [26] | Antibiotic susceptibility [27] | Antibiotic susceptibility [28] | Antibiotic susceptibility [30] | Antibiotic susceptibility [31] | Antibiotic susceptibility [32] | Antibiotic susceptibility [33] | Antibiotic susceptibility [34] | Antibiotic susceptibility [35]
I: Antibiotic susceptibility [9]

NCC[C@H](O)C(=O)N[C@@H]1C[C@H](N)[C@@H](O[C@H]2O[C@H](CN)[C@@H](O)[C@H](O)[C@H]2O)[C@H](O)[C@H]1O[C@H]1O[C@H](CO)[C@@H](O)[C@H](N)[C@H]1O [AMK, Amikacin]
I: Antibiotic susceptibility [5] | Antibiotic susceptibility [6] | Antibiotic susceptibility [11] | Antibiotic susceptibility [15] | Antibiotic susceptibility [27] | Antibiotic susceptibility [28] | Antibiotic susceptibility [30] | Antibiotic susceptibility [31] | Antibiotic susceptibility [33]
S: Antibiotic susceptibility [3] | Antibiotic susceptibility [9] | Antibiotic susceptibility [10] | Antibiotic susceptibility [13] | Antibiotic susceptibility [14] | Antibiotic susceptibility [17] | Antibiotic susceptibility [19] | Antibiotic susceptibility [22] | Antibiotic susceptibility [23] | Antibiotic susceptibility [25] | Antibiotic susceptibility [29]
R: Antibiotic susceptibility [4] | Antibiotic susceptibility [7] | Antibiotic susceptibility [8] | Antibiotic susceptibility [12] | Antibiotic susceptibility [16] | Antibiotic susceptibility [18] | Antibiotic susceptibility [20] | Antibiotic susceptibility [21] | Antibiotic susceptibility [24] | Antibiotic susceptibility [26] | Antibiotic susceptibility [32] | Antibiotic susceptibility [34] | Antibiotic susceptibility [35]

CO/N=C(\C(=O)N[C@@H]1C(=O)N2C(C(=O)O)=C(CSc3nc(=O)c(=O)[nH]n3C)CS[C@H]12)c1csc(N)n1 [CRO, Ceftriaxone]
I: Antibiotic susceptibility [17] | Antibiotic susceptibility [18] | Antibiotic susceptibility [23] | Antibiotic susceptibility [25] | Antibiotic susceptibility [27]
R: Antibiotic susceptibility [3] | Antibiotic susceptibility [4] | Antibiotic susceptibility [5] | Antibiotic susceptibility [6] | Antibiotic susceptibility [7] | Antibiotic susceptibility [8] | Antibiotic susceptibility [9] | Antibiotic susceptibility [10] | Antibiotic susceptibility [11] | Antibiotic susceptibility [12] | Antibiotic susceptibility [14] | Antibiotic susceptibility [15] | Antibiotic susceptibility [16] | Antibiotic susceptibility [19] | Antibiotic susceptibility [20] | Antibiotic susceptibility [21] | Antibiotic susceptibility [22] | Antibiotic susceptibility [24] | Antibiotic susceptibility [26] | Antibiotic susceptibility [28] | Antibiotic susceptibility [29] | Antibiotic susceptibility [30] | Antibiotic susceptibility [31] | Antibiotic susceptibility [32] | Antibiotic susceptibility [33] | Antibiotic susceptibility [34] | Antibiotic susceptibility [35]
S: Antibiotic susceptibility [13]
